Measurements taken from paper PMC2615442, “Comparative analysis of selected methods for the assessment of antimicrobial and membrane-permeabilizing activity: a case study for lactoferricin derived peptides” (BMC Microbiology, 2008).
Where a SMILES comes first, the peptide text is derived from it.

How the values were obtained:
[1] = tested on: P. aeruginosa strain PAO1; conditions: for final MIC of antibiotic: in the presence of subinhibitory concentrations of peptide P22, strain PAO1
Method: For these experiments we used the wild type P. aeruginosa strain PAO1, whose mechanisms of antibiotic resistance have been extensively studied.
(§1) The ability of the peptides to induce bacterial sensitization to antibiotics was determined by a standard checkerboard titration method in 96-well polystyrene microtiter plates. For this purpose, serial dilutions of the two antimicrobial agents were mixed together in a microtiter plate so that each row contained a fixed amount of peptide and increasing amounts of the antibiotic. Inocula and growth conditions were identical to those described for MIC determination. To assess the synergy between antibiotics and peptides, the Fractional Inhibitory Concentration (FIC) index of each combination was calculated according to the following formula: [(A)/MICA] + [(P)/MICP] = FICA + FICP = FIC index, where MICA and MICP are the MICs of the antibiotic and peptide determined separately, and (A) and (P) are the MICs of the antibiotic and peptide when determined in combination. A given peptide-antibiotic combination was considered as synergistic if its FIC index was ≤ 0.5.

[2] = tested on: Pseudomonas aeruginosa 4158-02; test: microbe, parasite or virus in culture; conditions: for FIC index of peptide-novobiocin combination: checkerboard, peptides with MIC >250 μg/mL assigned 500 μg/mL, synergistic if ≤ 0.5; for synergistic activity with novobiocin, in words: subinhibitory peptide concentrations
Method: First, we studied the ability of the peptides to sensitize P. aeruginosa to novobiocin, a hydrophobic antibiotic that cannot reach its intracellular target (gyrase) due to its inability to cross an intact outer membrane. […] Specifically, for a combination to be considered synergistic MIC of each agent when combined have to be at least 4-times lower than that of the corresponding agent alone.
as §1

[3] = tested on: Pseudomonas aeruginosa; test: NPN uptake permeabilization assay; type: cell-based; conditions: peptide 50 μg/mL; NPN 10 μM; 5 mM HEPES pH 7.2 with 0.1% glucose; 37°C
Method: In addition to this indirect method, we used a direct assay which measures the ability of peptides to promote the entry of a hydrophobic fluorescent probe (1-N-phenylnaphthylamine; NPN) into the cell membrane. This method identifies potent permeabilizers as those causing rapid NPN uptake leading to a high level of fluorescence.
The peptides permeabilizing activity on the bacterial cell envelope was assessed by quantifying the uptake of 1-N-phenylnaphthylamine (NPN). These experiments were performed essentially as described by Loh and collaborators with some modifications. Briefly, bacterial cells were grown in LB broth to mid-logarithmic phase, washed in 5 mM HEPES buffer (N-2-hydroxyethylpiperazine-N'-2-ethanesulfonic acid, pH 7.2) and resuspended at an OD600 of 0.5 in HEPES supplemented with 0.1% glucose. Freshly prepared bacterial suspensions were allowed to stabilize at 37°C for 10 min in quartz cuvettes. NPN was added at a final concentration of 10 μM and fluorescence was measured with a fluorometer (LS-50, Perkin-Elmer, Wellesley, MA, USA) using the time drive recording mode, slit widths of 2.5 nm and excitation and emission wavelengths of 350 nm and 420 nm, respectively. Peptides were added to the cuvette at a final concentration of 50 μg/mL.

[4] = tested on: E. coli ATCC 25922; test: MIC/MBC in polypropylene vs. polystyrene microplates; type: cell-based, Escherichia coli; conditions: for MIC, polypropylene vs. polystyrene plates: broth microdilution
Method: It has been reported that cationic peptides have affinity for certain plastics (i.e. polystyrene; [20]), and as a consequence some authors disfavor the use of microplates made of such material. To investigate this potential interference, we studied whether the composition of the microplate (polypropylene vs. polystyrene) affected the antibacterial activity of selected peptides differing in length, hydrophobicity and net charge when tested on E. coli ATCC 25922.
The peptides MICs were determined in Mueller-Hinton (MH) medium (Difco Laboratories, Sparks, MD, USA) by the broth microdilution assay following recommendations of the Clinical and Laboratory Standards Institute. Briefly, serial twofold dilutions of the peptides were made in MH broth and dispensed into 96-well U-bottom polystyrene microtiter plates (TPP, Trasadingen, Switzerland). Bacterial cells grown for 18–20 h on agar plates were suspended in saline and the turbidity was adjusted to an O.D600 of 0.04 (1 × 10^7 CFU/mL, approximately). A hundred-fold dilution of this suspension prepared in MH broth was mixed 1:1 with 100 μL of each of the corresponding peptide dilution. Plates were incubated at 37°C without shaking for 18–20 h and the MIC was determined visually. Minimum bactericidal concentration (MBC) was determined by plating aliquots from those wells with no growth onto MH agar plates. MBC was defined as the lowest concentration of the peptide causing a 99.9% loss of viability with respect to the CFU/mL inoculated.
The peptides MICs were also determined using polypropylene labware by the conventional broth microdilution assay as described above. For these experiments, polypropylene 96 well round bottom plates (Greiner; Sigma-Aldrich, USA) were used. Both this and all the previous antimicrobial susceptibility assays were performed at least in duplicate.

[5] = tested on: Pseudomonas aeruginosa; test: Bactericidal activity on resting bacteria in phosphate buffer with or without Ca2+/Mg2+; type: cell-based; conditions: 20 mM phosphate pH 7.0 (PB vs PB-CM), 18 hours, viable counts
Method: (§2) All peptides were first screened for bactericidal activity under low ionic strength conditions on resting bacteria. For this purpose, we exposed bacterial cells in phosphate buffer (PB) to increasing concentrations of peptides and performed viable cell counts. Experimental designs similar to this are found in reports dealing with the biological characterization of peptides (see for instance). These experiments were performed on Escherichia coli, Pseudomonas aeruginosa and Bordetella bronchiseptica, three Gram-negative pathogens differing in sensitivity to APs.
(§3) The buffer used in the previous experiments was devoid of Ca^2+ and Mg^2+, two divalent cations known to contribute to outer membrane stabilization. […] However, the magnitude of the decrease varied markedly depending upon the peptide and strain.
(§4) The activity of the peptides was determined on non-growing bacteria by incubating bacterial suspensions containing number of CFU/mL identical to those used for the MIC assay (5 × 10^4 per microplate well) in low-ionic strength medium (20 mM phosphate, pH 7.0) with or without 1 mM Ca ^2+ and 1 mM Mg ^2+. After 18 hours, aliquots were plated onto MH agar to determine the presence of viable bacteria, as described above for the standard MBC assay.

[6] = tested on: Bordetella bronchiseptica; test: as above; type: cell-based; conditions: 20 mM phosphate pH 7.0 (PB vs PB-CM), 18 hours, viable counts
Method: as §2, §3, §4

[7] = tested on: Escherichia coli; test: as above; type: cell-based; conditions: 20 mM phosphate pH 7.0 (PB vs PB-CM), 18 hours, viable counts
Method: as §2, §3, §4

CC[C@H](C)[C@H](NC(=O)[C@H](CC(N)=O)NC(=O)[C@H](CCCNC(=N)N)NC(=O)[C@H](CCC(N)=O)NC(=O)[C@H](Cc1c[nH]c2ccccc12)NC(=O)[C@H](Cc1ccccc1)NC(=O)[C@@H](N)CCCNC(=N)N)C(=O)N[C@@H](CCCNC(=N)N)C(=O)N[C@@H](CCCCN)C(=O)N[C@@H](Cc1ccc(O)cc1)C(=O)N[C@@H](CCCNC(=N)N)C(=O)N[C@@H](CCCNC(=N)N)C(N)=O [P 22] (H-RFWQRNIRKYRR-NH2)
FIC of P22-antibiotic combinations ([1]; PAO1): < 0.5 | peptide MIC ([1]; PAO1): 31.25 µg/mL

CC1(C)S[C@@H]2[C@H](NC(=O)[C@H](N)c3ccc(O)cc3)C(=O)N2[C@H]1C(=O)O [amoxicillin]
final MIC of antibiotic [1]: 2 µg/mL

CC1(C)S[C@@H]2[C@H](NC(=O)[C@H](N)c3ccccc3)C(=O)N2[C@H]1C(=O)O [ampicillin]
final MIC of antibiotic [1]: 5 µg/mL

CC[C@H]1OC(=O)[C@H](C)[C@@H](O[C@H]2C[C@@](C)(OC)[C@@H](O)[C@H](C)O2)[C@H](C)[C@@H](O[C@@H]2O[C@H](C)C[C@H](N(C)C)[C@H]2O)[C@](C)(O)C[C@@H](C)C(=O)[C@H](C)[C@@H](O)[C@]1(C)O [erythromycin]
final MIC of antibiotic [1]: 1 µg/mL

CCn1cc(C(=O)O)c(=O)c2ccc(C)nc21 [nalidixic acid]
final MIC of antibiotic [1]: 2 µg/mL

CO[C@@H]1[C@@H](OC(N)=O)[C@@H](O)[C@H](Oc2ccc3c(O)c(NC(=O)c4ccc(O)c(CC=C(C)C)c4)c(=O)oc3c2C)OC1(C)C [novobiocin, reference compound]
MIC ([2]; Pseudomonas aeruginosa, 415802, read-out: novobiocin MIC in the absence of peptides): ≥ 512 µg/mL | final MIC of antibiotic [1]: 5 µg/mL

CO[C@H]1/C=C/O[C@@]2(C)Oc3c(C)c(O)c4c(O)c(c(/C=N/N5CCN(C)CC5)c(O)c4c3C2=O)NC(=O)/C(C)=C\C=C\[C@H](C)[C@H](O)[C@@H](C)[C@@H](O)[C@@H](C)[C@H](OC(C)=O)[C@@H]1C [rifampicin]
final MIC of antibiotic [1]: 0.07 µg/mL

CFWQRNIRKVRC-NH2 [P 28]
NPN uptake (fluorescence rise) [3]: slowest and less prominent NPN-uptakes | classification by the novobiocin-sensitization technique [2]: poor permeabilizers

FWARNIRKVR-NH2 [P 46, LF11 derived synthetic peptide, amidated C-terminus]
MBC, polypropylene vs. polystyrene plates [4]: improved its MBC when using polypropylene instead of polystyrene

FWLRNIRKVR-NH2 [P 48]
FIC index of peptide-novobiocin combination [2]: low FIC indices

FWQRNIRKVKKK-NH2 [P 10]
FIC index of peptide-novobiocin combination [2]: best compounds as judged by their FIC indices | synergistic activity with novobiocin, in words [2]: synergistic activity at low concentrations

FWQRNIRKVKKKI-NH2 [P 14]
FIC index of peptide-novobiocin combination [2]: best compounds as judged by their FIC indices | decrease in novobiocin MIC (MIC ratio without/with peptide) ([2]; peptide added at 6.25 μg/mL): 4 fold | times the synergistic peptide concentration (6.25 μg/mL) is lower than the peptide's own MIC ([2]; peptide at 6.25 μg/mL): at least 40 times

FWQRNIRKVKKKK-NH2 [P 13, LF11 derived synthetic peptide, amidated C-terminus]
MBC, polypropylene vs. polystyrene plates [4]: not significantly affected by the type of material used | MIC, polypropylene vs. polystyrene plates [4]: MIC improved in polypropylene plates

FWQRNIRKVRRRR-NH2 [P 11, LF11 derived synthetic peptide, amidated C-terminus]
MBC, polypropylene vs. polystyrene plates [4]: lower in polystyrene | MIC, polypropylene vs. polystyrene plates [4]: same MIC in both materials

FWQRNISKVR-NH2 [P 54]
NPN uptake (fluorescence rise) [3]: slowest and less prominent NPN-uptakes | classification by the novobiocin-sensitization technique [2]: poor permeabilizers

FWQRNIYKVR-NH2 [P 41]
NPN uptake (fluorescence rise) [3]: slowest and less prominent NPN-uptakes | classification by the novobiocin-sensitization technique [2]: poor permeabilizers

FWQRRIRKVRR-NH2 [P 15]
FIC index of peptide-novobiocin combination [2]: low FIC indices | synergistic activity with novobiocin, in words [2]: synergistic activity at low concentrations

FWRNIRKVR-NH2 [P 3]
NPN uptake (fluorescence rise) [3]: slowest and less prominent NPN-uptakes | classification by the novobiocin-sensitization technique [2]: poor permeabilizers

Polymyxin B [PMB]
effect of 1 mM Ca2+ and 1 mM Mg2+ on bactericidal activity [5]: not significantly affected by the divalent cations | effect of 1 mM Ca2+ and 1 mM Mg2+ on bactericidal activity [6]: not significantly affected by the divalent cations | effect of 1 mM Ca2+ and 1 mM Mg2+ on bactericidal activity [7]: not significantly affected by the divalent cations | MIC, polypropylene vs. polystyrene plates [4]: higher activity (lower MIC value) when assayed in polypropylene
